In US10793601B2, “Therapeutic spalt-like transcription factor 4 (SALL4) peptide” (National University of Singapore, priority 2016, dated 2020):
“And” between values parts separate entries of the source, which are not always exact repeats. Equal entries are not always repeated. Ends that are not written are not given here.

Tests used:
SNU398 tumor xenografts = assay: SNU398 xenograft in NSG mice; type: in vivo, NOD/SCID/gamma mice
Procedure: FIGS. 7A-7E. […] FIG. 7A: 7.2×10^5 SNU398 cells were inoculated subcutaneously into the right flank of NOD/SCID/gamma mice (NSG mice). Tumors were allowed to grow for one week before peptide treatments were administered every alternate day for a total of five injections. FIG. 7B: Tumor growth was documented by plotting tumor volume against time. […] FIG. 7C: Relative size of tumors resected on day 20. FIG. 7D: tumor weight was determined (n=5). […] FIG. 7E: Total RNA was isolated from the resected tumors and expression of PTEN was measured using real-time PCR.
FIGS. 9A-9E. […] FIG. 9A: PEN-FFW treated SNU398 tumor xenografts were compared to that of Sorafenib treated xenografts. FIG. 9B: PEN-FFW treated PLC8024 tumor xenografts were compared to that of Sorafenib treated xenografts. Mice body weight was measured to access toxicity of various peptides. FIG. 9C: Body weight of mice at day 17. FIG. 9D: Differences of body weight compared to day 0 (As indicated by the arrow in far left of FIG. 7A). FIG. 9E: Body weight of mice at day 19th in the experiment shown in FIG. 9A comparing effect of Sorafenib and PEN-FFW. Data represent mean±s.d. (n=5).
All mice were treated in accordance with Responsible Care and Use of Laboratory animals. In the SNU398 in vivo studies, 6-8-week-old female C.B-17 severe combined immunodeficient (SCID) mice (NSG) were inoculated s.c. into the flank with 7.2×10^5 cells in 2:1 PBS/Matrigel (BD Biosciences). The tumours were then allowed to develop to the size of 50-70 mm3 before intraperitoneal injections of the different peptides were given at two to three-day intervals for a total of 5 injections. Mice were randomly grouped in sets of six and treated with PEN (penetratin control), PEN-MUT (mutant control), PEN-WT (wild type control) and PEN-FFW (peptide 47). Tumor volumes were measured every 5 days and tumor weight were measured at the end point. For PEN control, 22.5 mg/kg were given; for PEN-MUT, PEN-WT and PEN-FFW, 35.6 mg/kg, 37 mg/kg and 36 mg/kg were given respectively to the mice according to their body weight Tumor measurements were taken twice weekly using Vernier calipers. Tumor volume was estimated using the following formula: V=0.5×width×width×length. When tumors approached ˜50 mm3, mice were randomized into groups of 5 animals each and received peptides treatment three times weekly by i.p. injection. All statistical analysis was done using a one-way ANOVA and Student's T-test.

PLC8024 tumor xenografts = assay: PLC8024 xenograft (Sorafenib-resistant HCC); type: in vivo, mice
Procedure: FIGS. 9A-9E. Clinical significance of PEN-FFW compared to Sorafenib. FIG. 9A: PEN-FFW treated SNU398 tumor xenografts were compared to that of Sorafenib treated xenografts. FIG. 9B: PEN-FFW treated PLC8024 tumor xenografts were compared to that of Sorafenib treated xenografts. Mice body weight was measured to access toxicity of various peptides. FIG. 9C: Body weight of mice at day 17. FIG. 9D: Differences of body weight compared to day 0 (As indicated by the arrow in far left of FIG. 7A). FIG. 9E: Body weight of mice at day 19th in the experiment shown in FIG. 9A comparing effect of Sorafenib and PEN-FFW. Data represent mean±s.d. (n=5).
Clinical significance of PEN-FFW was studied in vivo by benchmarking against current therapy using Sorafenib. PEN-FFW treated SNU398 tumor xenografts were compared to that of Sorafenib treated xenografts (FIG. 9A). […] Potential therapeutic effect of PEN-FFW in HCC patients that are refractory to Sorafenib treatment was studied also studied in vivo. using a HCC cell line, PLC8024 which is SALL4 positive, CD133+ and is both chemo- and radio-resistant (Li et al., BMC Cancer 2016, 16, 15; Ma et al., Oncogene 2008, 27: 1749-1758), for the xenograft study.

Question: Which “anti-tumor activity benchmarked against Sorafenib” value (SNU398 tumor xenografts; SNU398 xenograft, compared to vehicle treated groups) does the source give for RQIKIWFQNRRMKWKKRRKFAKFQWI [PEN-FFW] here?
Answer: The value was “stronger anti-tumor activity than Sorafenib”.

Question: And the “effect on tumor growth” value (SNU398 tumor xenografts; SNU398 xenograft, tumor volume against time)?
Answer: Its value is “significant reduced growth rate”.

Question: And the tumor weight (SNU398 tumor xenografts; mean, tumors resected on day 20, five i.p. injections)?
Answer: Its tumor weight is 88.34 mg and 88 mg.

Question: And the tumor inhibitory effect (PLC8024 tumor xenografts)?
Answer: Its tumor inhibitory effect is “minimal tumor inhibitory effect”.
